# Patent US9433663B2, “Mobilization of hematopoietic stem cells” (Children's Hospital Medical Center, priority 2008, dated 2016)
# Key:
# Swiss 3T3 fibroblasts = assay: actin cytoskeleton rearrangement in Swiss 3T3 fibroblasts; type: cell-based, murine; settings: serum-starved Swiss 3T3 cells, in the presence of CASIN
# Excerpt: To investigate the Cdc42-dependent cytoskeleton rearrangement, Swiss 3T3 fibroblasts were used since it was abundantly elaborated in Swiss 3T3 fibroblats that bradykinin induces actin filopodia formation through activating Cdc42, whereas PDGF activates Rac1 and induces Rac-mediated membrane lamellipoidia, and LPA responsible for RhoA activation, eliciting RhoA-medicated formation of actin stress fibers and focal adhesion assembly (Ridley, A. J. et al. Cell 70, 401-410 (1992); Ridley, A. J. et al. Cell 70, 389-399 (1992); Kozma, R. et al. Mol Cell Biol 15, 1942-1952 (1995)).
# […] cells were seeded in Dulbecco's modified Eagle's medium (DMEM) supplemented with 10% calf serum on glass coverslips at a density of 10^5 cells per well in 8-well chambers. 24 hrs after cell seeding, cells were starved in serum-free DMEM for 24 h in the presence or absence of 5 μM or 10 μM CASIN for the last 2 hrs. cells then were stimulated with 5 ng/ml PDGF, 40 ng/ml LPA, or 100 ng/ml bradykinin, then fixed for immunofluorescence analysis. Immunostaining of F-actin with Rhodamine conjugated-phalloidin (Invitrogen) was carried out as described previously (Shutes, A., et al. J Biol Chem 282, 35666-35678 (2007)).
# LDBM cells [1] = assay: CFU-adhesion assay of LDBM cells on fibronectin; type: cell-based, murine
# Excerpt: (§1) To shed light on potential roles of CASIN in HSPC mobilization, the effects of CASIN on Cdc42-related cellular functions was studied, including adhesion, migration, and F-actin polymerization of progenitor cells in 32D myeloid progenitors. […] SDF-1α stimulation causes a reorganization of F-actin into a cortical ring around the cells. […] Thirdly, to gain further insight into cellular specificity and efficacy of CASIN, and also to rule out possible toxic effects by CASIN, Cdc42-involved BM progenitor cell functions were examined, including proliferation, adhesion, migration, and F-actin polymerization, in Cdc42^+/+ cells in parallel with Cdc42^−/− cells. In line with additional studies in a Cdc42 conditional knockout mouse model as described herein, Cdc42^−/− LDBM cells have increased CFU-forming progenitors compared to those of Cdc42^+/+.
# (§2) Murine LDBM cells from Cdc42^+/+ as well as Cdc42^−/− mice were used for CFU-adhesion/migration experiments as described previously. Briefly, for adhesion experiment, in the presence or absence of prior CASIN treatment at doses of 5 and 10 μM, 10^5 cells were plated onto each well of 48-well plates pre-coated with fibronectin fragment CH296, which contains integrin α4β1-binding site. Adherent cells then were harvested by cells dissociation buffer (Gibco, Carlsbad, Calif.), and further plated in CFU assay. […]
# LDBM cells [2] = assay: CFU-migration assay of LDBM progenitors towards SDF-1α; type: cell-based, murine
# Excerpt: as §1, §2
# [3] = test system: human CD45^+ hematopoietic cells; assay: mobilization of human CD45+ cells in NOD/SCID-hCB model; type: in vivo, NOD/SCID mice xenografted with human CD34^+ hCB cells; settings: intravenous injection, by 20 min post administration
# Description: (§3) To begin to study potential utility of CASIN in human hematopoietic stem cell mobilization, a series of cellular assays were carried out to determine the effects on human CD34^+ umbilical cord blood cells (HCBs). […] The effects of CASIN on human hematopoietic cell mobilization was therefore tested using a well established preclinical in vivo model (NOD/SCID-Hcb) of human hematopoietic function, where fresh CD34^+ hCB cells were transplanted into sub-lethally irradiated NOD/SCIDs by intrafemoral injection, and repopulated and maintained human hematopoietic reconstitution in the bone marrow of NOD/SCID recipient mice (FIG. 9b, FIG. 11) (Larochelle, A. et al. Nat Med 2, 1329-1337 (1996); Bhatia, M., et al. Proc Natl Acad Sci USA 94, 5320-5325 (1997)). Intravenous injections of CASIN were applied when human cells were well engrafted in the NOD/SCID recipients.
# C57BL/6, NOD/SCID, NOD/SCID-SGM3 and NOD/SCIDγC−/− (NOG) were in house bred in the animal barrier facility of Cincinnati Children's Hospital Medical Center (CCHMC) and used at the age of 6-8 weeks old. Cultured N-RasMA93 cells were injected into NOD/SCIDγC−/− mice by tail vein. Freshly thawed CD34^+ hCB cells were transplanted into NOD/SCID mice by intrafemoral injection.
# Fancc−/− mice = assay: Example 10 preparative regimen for BM transplantation in Fancc−/− mice; type: in vivo; settings: preconditioning before BM transplantation
# Description: Four preparative regimens before BM transplantation on Fancc−/− mice are used to evaluate the capacity of CASIN as a preconditioning agent: (1) Control group; (2) CY group: a single dose of 40 mg/kg CY intraperitoneally; (3) CASIN group: 2.5 mg/Kg; (4) combination of CASIN and CY: one injection of CASIN is given in combination with reduced doses of CY.
# Fancc−/− mice are preconditioned with each of these four regimens, and 4×10^7 BM cells from congenic strain mice are transplanted into preconditioned mice by tail vein injection. Mice that underwent transplantation are bled every four weeks to monitor the chimerism of donor-derived cells in PB. And at 3 m, the mice are sacrificed to evaluate the engraftment of donor-derived cells in BM.
# Cdc42 = Cdc42 (Homo sapiens, UniProt P60953); assay: Rho GTPase effector pulldown in human CD34+ umbilical cord blood cells, Cdc42; type: cell-based; set-up: endogenous in cells; host or cells: human CD34+ umbilical cord blood cells (HCB); settings: human CD34^+ HCBs
# Description: as §3
# To analyze the effects of CASIN on the formation of active GTP-bound Cdc42, RhoA, and Rac1, effector pulldown assays were carried out as described previously. Cdc42GAP^−/− MEF, LDBM, CD34^+ hCB cells were treated with CASIN at doses of 5-20 μM in parallel with vehicle control for 2 hrs after overnight starvation, and stimulated with cytokines subsequently. […]
# Cdc42, sequence (P60953 whole entry): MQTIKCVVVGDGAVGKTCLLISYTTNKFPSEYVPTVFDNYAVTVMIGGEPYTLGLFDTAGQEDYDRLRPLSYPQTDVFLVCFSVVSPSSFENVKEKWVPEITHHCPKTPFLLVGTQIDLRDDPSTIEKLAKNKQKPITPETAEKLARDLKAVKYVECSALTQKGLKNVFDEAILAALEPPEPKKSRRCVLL
structure (smiles),measurement,setting,value
OCCNC1CCCc2c1[nH]c1ccc(-c3ccccc3)cc21 (stereo not drawn) [CASIN],LPA-induced actin stress fiber formation,Swiss 3T3 fibroblasts,still induced their respective changes in actin reorganization
same,PDGF-induced lamellipodia formation,Swiss 3T3 fibroblasts,still induced their respective changes in actin reorganization
same,bradykinin-induced filopodia formation,Swiss 3T3 fibroblasts,suppressed completely
same,adhesion of colony-forming progenitors to fibronectin surface,LDBM cells [1]; Cdc42^+/+ LDBM cells,dose-dependently inhibited
same,adhesion activity of Cdc42^−/− cells,LDBM cells [1]; Cdc42^−/− LDBM cells,did not have additive effects
same,directional migration capacity of Cdc42^−/− cells,LDBM cells [2],did not affect
same,human CD45^+ hematopoietic cells mobilized to the peripheral blood,[3],significant amount of human CD45^+ hematopoietic cells mobilized to the peripheral blood
same,repopulation and engraftment of donor derived cells in PB and BM of Fancc−/− recipient mice,Fancc−/− mice,reasonable repopulation and engraftment of donor derived cells
same,Cdc42 activity,Cdc42,specifically inhibit
